The source of these data is PubChem BioAssay (NCI).

Each structure is given as a SMILES string. Where “and” joins values, the source holds several entries; their conditions need not be identical. Identical values can stand only once.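 Results reflect a 48-hour exposure of cells in 96-well plates to compound at five concentrations. Here, GI50 denotes the concentration required for 50% inhibition of growth. TGI marks complete inhibition of growth.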

Some test systems named below: SW-620 colon; M14 melanoma; ACHN renal; NCI-H226 lung; SK-MEL-28 melanoma; HOP-62 NSCLC; MOLT-4 leukemia; HOP-92 NSCLC; U251 CNS; SN12C renal.
Common to all, as to assay: NCI-60 cell line screen, 48 h

Turning to `O=C(Nc1nc2ncn(CCI)c2c(=O)[nH]1)c1ccccc1`, the TGI with SW-620 colon is more than 100 µM; in the test with M14 melanoma it was more than 100 µM; in the test on ACHN renal, more than 100 µM; in the test with NCI-H226 lung it was 77.4 µM; in the test with SK-MEL-28 melanoma, more than 100 µM; in the test on HOP-62 NSCLC, more than 81.1 µM. The TGI in the test on MOLT-4 leukemia was more than 100 µM; in the test on HOP-92 NSCLC it was 81 µM; in the test with U251 CNS it was more than 96.5 µM; with SN12C renal, more than 100 µM.

In the case of `C#Cc1cccc(Nc2ncnc3cc(OC)c(OCCCCCCC(=O)NO)cc23)c1`, the GI50 in the test on SW-620 colon was 0.058 µM; with M14 melanoma it was 0.21 µM; in the test on ACHN renal it was 0.127 µM; with NCI-H226 lung, 0.853 µM; in the test with SK-MEL-28 melanoma, 0.136 µM; with HOP-62 NSCLC it was 0.311 µM. The GI50 is 0.0864 µM in the test with MOLT-4 leukemia, 0.0512 µM with HOP-92 NSCLC, 0.151 µM in the test with U251 CNS and 0.129 µM in the test on SN12C renal. For the same molecule, the TGI with SW-620 colon amounted to 0.319 µM; in the test with M14 melanoma, 1.99 µM; with ACHN renal, 2.48 µM; in the test on NCI-H226 lung it was 4.81 µM; with SK-MEL-28 melanoma, 1.47 µM; in the test on HOP-62 NSCLC, 4.57 µM. Moreover, the TGI was found to be 1.93 µM in the test with MOLT-4 leukemia, 0.415 µM with HOP-92 NSCLC, 4.07 µM in the test with U251 CNS and 4.21 µM in the test on SN12C renal.

For the molecule `O=C1NC(=Nc2ccccc2)S/C1=C\c1ccc2ncccc2c1`, the GI50 with SW-620 colon was 0.965 µM; with M14 melanoma, more than 25 µM; in the test with ACHN renal, more than 25 µM; with NCI-H226 lung, more than 25 µM; in the test on SK-MEL-28 melanoma, more than 25 µM; in the test on HOP-62 NSCLC, 4.46 µM. Further, the GI50 in the test with MOLT-4 leukemia was more than 25 µM; in the test on HOP-92 NSCLC, more than 25 µM; in the test with U251 CNS it was more than 5.13 µM; in the test with SN12C renal it was more than 25 µM. For the same molecule, the TGI in the test on SW-620 colon, with M14 melanoma, with ACHN renal, in the test on NCI-H226 lung, with SK-MEL-28 melanoma and with HOP-62 NSCLC was more than 25 µM in each case. Also, the TGI in the test with MOLT-4 leukemia, with HOP-92 NSCLC, in the test with U251 CNS and with SN12C renal was more than 25 µM each time.

In the case of `COc1ccc(N(C)c2ncnc3occ(C)c23)cc1`, the GI50 is less than 0.01 µM with SW-620 colon; less than 0.01 µM in the test on M14 melanoma; 0.0193 µM in the test on ACHN renal; less than 0.01 µM in the test on NCI-H226 lung; less than 0.01 µM in the test on SK-MEL-28 melanoma; less than 0.01 µM with MOLT-4 leukemia. For the same molecule, the GI50 is 0.0625 µM with HOP-92 NSCLC, less than 0.01 µM in the test on U251 CNS and less than 0.01 µM with SN12C renal. In addition, the TGI with SW-620 colon is more than 100 µM; in the test with M14 melanoma, more than 100 µM; in the test on ACHN renal, more than 100 µM; in the test with NCI-H226 lung it was 0.0761 µM; in the test on SK-MEL-28 melanoma, more than 100 µM; in the test on HOP-62 NSCLC it was more than 100 µM. Besides, the TGI in the test with MOLT-4 leukemia was 0.0481 µM; with HOP-92 NSCLC, more than 100 µM; in the test with U251 CNS it was 11.9 µM; with SN12C renal, more than 100 µM.

With `O=S(=O)(Nc1cc(F)cc(Cl)c1)c1ccc(-c2cnc(C3CC3)o2)cc1`, the GI50 is 0.599 µM with SW-620 colon; 0.923 µM with M14 melanoma; 4.67 µM with ACHN renal; 3.46 µM with NCI-H226 lung; 10.3 µM in the test on SK-MEL-28 melanoma; 1.56 µM in the test on HOP-62 NSCLC. Besides, the GI50 with MOLT-4 leukemia is 2.55 µM; with HOP-92 NSCLC, 0.979 µM; in the test with U251 CNS, 1.55 µM; with SN12C renal, 3.49 µM. The TGI in the test on SW-620 colon is 15.5 µM; in the test on M14 melanoma, 15.5 µM; in the test with ACHN renal, 45 µM; in the test on NCI-H226 lung, 17.9 µM; in the test on SK-MEL-28 melanoma, 23.7 µM; in the test with HOP-62 NSCLC it was 17.7 µM. Besides, the TGI was more than 100 µM in the test with MOLT-4 leukemia, 8.45 µM in the test on HOP-92 NSCLC, 15.2 µM in the test on U251 CNS and 17.4 µM in the test on SN12C renal.

For `COCCOc1cc(F)c2c(Nc3ccc(NC(=O)Cn4cc(C(C)C)nn4)cc3)ncnc2c1`, the GI50 with SW-620 colon was more than 100 µM; in the test with M14 melanoma it was more than 100 µM; in the test with ACHN renal, 51.5 µM; with NCI-H226 lung, 60.8 µM; in the test with SK-MEL-28 melanoma, more than 100 µM; in the test on HOP-62 NSCLC, 22.2 µM. Further, the GI50 in the test with MOLT-4 leukemia is more than 100 µM; in the test on HOP-92 NSCLC, 5.99 µM; in the test with U251 CNS, 37.4 µM; in the test on SN12C renal, 71.6 µM. Moreover, the TGI in the test with SW-620 colon, in the test on M14 melanoma, in the test with ACHN renal, in the test on NCI-H226 lung, in the test on SK-MEL-28 melanoma and in the test with HOP-62 NSCLC was more than 100 µM throughout. The TGI in the test with MOLT-4 leukemia was more than 100 µM; in the test with HOP-92 NSCLC, 92 µM; in the test on U251 CNS it was more than 100 µM; with SN12C renal it was more than 100 µM.

As to `O=c1n(CC2CO2)c(=O)n(CC2CO2)c(=O)n1CC1CO1` (centres undefined), the GI50 in the test with SW-620 colon is 26.3 µM and 13.2 µM; in the test with M14 melanoma it was 13.2 µM and 6.77 µM; in the test on ACHN renal, 3.68 µM and 0.504 µM; in the test with NCI-H226 lung it was 22.6 µM and 10.9 µM; with SK-MEL-28 melanoma, 22.7 µM; in the test with HOP-62 NSCLC it was 6.38 µM and 15.1 µM. Moreover, the GI50 with MOLT-4 leukemia is 5.09 µM and 2.95 µM; with HOP-92 NSCLC, 18 µM and 7.22 µM; in the test on U251 CNS, 5.47 µM; in the test on SN12C renal, 17.7 µM and 3.55 µM. Besides, the TGI is 228 µM and > 100 µM in the test with SW-620 colon; 57.3 µM and > 100 µM in the test on M14 melanoma; 140 µM and > 100 µM with ACHN renal; 78.3 µM and 103 µM and 45.9 µM in the test on NCI-H226 lung; 139 µM and > 100 µM in the test on SK-MEL-28 melanoma; 38.8 µM and 96.1 µM and > 100 µM in the test with HOP-62 NSCLC. The TGI in the test with MOLT-4 leukemia is 210 µM and > 100 µM; in the test with HOP-92 NSCLC, 63.7 µM and 111 µM and > 100 µM; in the test on U251 CNS, 32.4 µM and 67.2 µM and 32.2 µM; in the test on SN12C renal it was 52 µM and 88.1 µM and > 100 µM.

For `O=C(O)CNc1cc(-c2ccccc2)nc(NCC(=O)O)n1`, the TGI in the test with SW-620 colon, with M14 melanoma, with ACHN renal, in the test with NCI-H226 lung, in the test on SK-MEL-28 melanoma and with HOP-62 NSCLC was more than 100 µM each time. For the same molecule, the TGI in the test on MOLT-4 leukemia, with HOP-92 NSCLC, with U251 CNS and in the test on SN12C renal was more than 100 µM throughout.
